{"source": "patent US12582632B2", "about": "“Inhibition of neurological injuries due to infections via administration of Butanetap and analogs thereof” (priority 2021, dated 2026)", "key": {"[1]": {"system": "immortalized Mouse Microglia (SIM-A9)", "assay": "Gingipain cytotoxicity on microglia, AlamarBlue viability", "type": "cell-based", "conditions": "48 hours, between 1 and 10 nM", "description": "(§1) Immortalized Mouse Astrocytes—SV40T (IMA2.1), immortalized Mouse Microglia (SIM-A9) and immortalized neuroblastoma (SH-SY5Y) cells were infected for 48 hours with gingipains HRgpA and RgpB (arginine gingipains), and Kgp (lysine-specific cysteine proteinase—Lys-gingipain, KGP). After 48 hours the cells were assessed for viability with the AlamarBlue assay and the percentage of dead or alive cells versus control was plotted. […] As expected, since neither are dying, […]. […] Therefore, we expect the efficacious buntanetap dose to fight P. gingivalis infection to be the same as to treat Alzheimer's and Parkinson's disease has no impact on the microglia or neuroblastoma survival in the presence of gingipains."}, "[2]": {"system": "neurotoxic aggregating proteins", "assay": "Translation of neurotoxic aggregating proteins in healthy mouse brain", "type": "in vivo", "description": "(§2) Therefore, the original data concerning the effects of butanetap working under all conditions is wrong. (See, e.g., Lahiri, et al., “The Experimental Alzheimer's Disease Drug butanetap [(+)-Phenserine] Lowers Amyloid-β Peptide Levels in Cell Culture and Mice”, J. Pharmacol. Ther. 320:386-396, 2007 (hereby incorporated by reference)). It only works in stressed cells, dividing cells and sick cells, e.g., those cells that have high levels of iron."}, "[3]": {"system": "neurotoxic aggregating proteins in stem cells (dividing cells)", "assay": "Neurotoxic aggregating proteins in stem cells and derived neurons", "type": "cell-based"}, "αSYN": {"system": "αSYN", "type": "in vivo, mice", "conditions": "50 and 65 mg/kg for 21 days, FIG. 6"}, "[4]": {"assay": "Phase 1 single and multiple ascending dose safety, tolerance, pharmacokinetic studies in healthy volunteers", "type": "in vivo, human", "conditions": "Phase I pharmacokinetic analyses", "description": "Three Phase I clinical studies have established butanetap's safety. […] Therefore, we conclude that a much lower single daily butanetap dose would be effective in the proposed study."}, "APP or aSYN mRNA to IRP1": {"biological_target": "APP or aSYN mRNA to IRP1 (Homo sapiens, UniProt P21399)", "sequence (P21399 whole entry)": "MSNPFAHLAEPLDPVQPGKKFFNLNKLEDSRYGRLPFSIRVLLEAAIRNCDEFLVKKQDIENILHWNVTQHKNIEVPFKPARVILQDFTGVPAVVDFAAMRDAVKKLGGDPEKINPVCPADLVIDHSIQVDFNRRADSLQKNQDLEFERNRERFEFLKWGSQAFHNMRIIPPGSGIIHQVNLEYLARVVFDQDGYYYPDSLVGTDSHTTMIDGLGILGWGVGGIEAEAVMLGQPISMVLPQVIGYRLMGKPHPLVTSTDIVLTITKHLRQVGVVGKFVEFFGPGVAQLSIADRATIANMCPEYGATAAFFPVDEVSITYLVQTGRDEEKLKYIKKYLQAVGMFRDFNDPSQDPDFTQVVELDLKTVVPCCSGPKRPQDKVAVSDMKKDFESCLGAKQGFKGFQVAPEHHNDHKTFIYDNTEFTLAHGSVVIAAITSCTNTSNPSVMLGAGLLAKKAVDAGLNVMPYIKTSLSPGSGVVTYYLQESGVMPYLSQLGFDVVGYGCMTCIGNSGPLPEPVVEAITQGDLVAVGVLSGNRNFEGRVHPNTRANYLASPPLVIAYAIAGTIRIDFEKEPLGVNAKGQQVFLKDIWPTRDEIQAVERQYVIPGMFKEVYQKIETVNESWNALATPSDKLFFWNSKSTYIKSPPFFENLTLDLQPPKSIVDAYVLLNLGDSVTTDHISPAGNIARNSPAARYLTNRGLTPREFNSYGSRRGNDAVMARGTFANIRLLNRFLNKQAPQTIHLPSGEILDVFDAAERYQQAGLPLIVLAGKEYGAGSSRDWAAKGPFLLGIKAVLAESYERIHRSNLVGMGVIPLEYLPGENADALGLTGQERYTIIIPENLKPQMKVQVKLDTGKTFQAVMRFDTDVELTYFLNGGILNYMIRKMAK", "assay": "Binding of mRNA IRE to IRP1", "description": "as §2\nButanetap augments the binding of APP mRNA IRE to IRP1 under high iron conditions and prevents APP from being translated excessively, restoring homeostasis. The same mechanism works for all neurotoxic aggregating proteins tested to date: Butanetap works under iron-dishomeostasis to restore homeostasis."}, "[5]": {"system": "insoluble (aggregated) tau", "assay": "Tau in vivo, hTau mice, ELISA", "conditions": "in mouse chow, 6 weeks; three of the 4 ELISA assays, FIG. 4", "description": "(§3) The cells were treated for 4 days with butanetap harvested, solubilized, and tested with antibodies against Tau and phospho-Tau. • B. FIG. 4, Tau in vivo. […] After 6 weeks, mice were killed and the total and insoluble (aggregated) tau was measured. […] Precipitated tau corresponds to tangles in the brain."}, "[6]": {"system": "neurotoxic aggregating proteins", "assay": "Neurotoxic aggregating proteins in cerebral cortex of transgenic AD and PD animals"}, "[7]": {"system": "Tau in transgenic neo-natal human Tau mice cells", "assay": "Tau in vitro", "type": "cell-based", "conditions": "cells treated for 4 days, antibodies against Tau and phospho-Tau, FIG. 3", "description": "as §3"}, "[8]": {"system": "APP, Tau, αSYN and inflammatory markers in CSF", "conditions": "MCI subjects, cited from earlier work"}, "[9]": {"system": "immortalized neuroblastoma (SH-SY5Y) cells", "assay": "Gingipain cytotoxicity on neuroblastoma cells, AlamarBlue viability", "type": "cell-based", "conditions": "48 hours, between 1 and 10 nM", "description": "as §1"}, "alpha-synuclein": {"system": "alpha-synuclein", "assay": "alpha-synuclein in gut in vivo, PD A53T mice, Western blot", "description": "• A. FIG. 5, alpha-synuclein in vitro. […] On the left is a Western blot showing butanetap inhibition of aSYN in relation to Actin standard at concentrations of 0, 0.1, 1, 5 and 10 μM and on the right a graph showing the same data plotted for statistical analysis purposes. • B. FIG. 6, alpha-synuclein brain in vivo. […] The animals were only treated for 2 weeks, so in brain it takes butanetap only 2 weeks to lower levels of alpha-synuclein. • C. FIG. 7, alpha-synuclein in gut in vivo. Gut levels of aSYN following treatment of PD A53T mice with 10 mg/kg for 21 weeks and 21 days reduced αSYN levels in the gut as shown by Western Blot."}, "[10]": {"system": "APP/PS1 transgenic (tg) mouse model of AD", "assay": "APP/PS1 transgenic mouse model of AD, memory, learning and synaptic transmission", "type": "in vivo", "description": "Butanetap's efficacy in treating neurodegeneration in animal models: Restored memory and learning in an APP/PS1 transgenic (tg) mouse model of AD; Restored memory and learning in a Ts65dn mouse model of Down syndrome (DS) [W. Mobley, UCSD, submitted 2020]; Preserved the retina in acute glaucoma [J Sundstrom; Hershey Medical School]; Restored colonic motility in a human SNCAA53T tg mouse model of PD (Kuo et. al., Am J Neurodegener Dis 2019; 8(1):1-15 www.AJND.us/ISSN:216 591X/AJND0086080: Translational inhibition of α-synuclein by Butanetap (Posiphen) normalizes distal colon motility in transgenic Parkinson mice); Preserved memory and learning in traumatic brain injury rats (M-F Chesselet, submitted 2020).\nButanetap's reversal of the neurotoxic cascade: Butanetap's mechanism of action is related to APP, Tau, and aSYN expression being regulated by RP1 and by iron and the way these proteins contribute to neurodegeneration by accumulating as toxic aggregates that impair axonal transport and synaptic transmission, causing inflammation, and, finally, leading to nerve cell death (as described previously)."}, "[11]": {"conditions": "cited from earlier work"}}, "data": [{"smiles": "CN1CC[C@]2(C)c3cc(OC(=O)Nc4ccccc4)ccc3N(C)C12", "note": "(stereo partly drawn) [butanetap, (3aR)-1,3a,8-trimethyl-1,2,3,3a,8,8a-hexahydropyrrolo[2,3-b]indol-5-yl phenylcarbamate]", "values": [{"measurement": "microglia survival in the presence of gingipains", "setting": "[1]", "result": "no impact"}, {"measurement": "translation of neurotoxic aggregating proteins", "setting": "[2]", "result": "does not inhibit"}, {"measurement": "neurotoxic aggregating proteins", "setting": "[3]; differentiated neurons derived from the stem cells", "result": "not in the differentiated neurons"}, {"measurement": "neurotoxic aggregating proteins", "setting": "[3]; stem cells (dividing cells)", "result": "inhibits"}, {"measurement": "αSYN in the brain", "setting": "αSYN", "result": "reduced"}, {"measurement": "concentration in brain relative to plasma", "setting": "[4]", "result": "about 8 times"}, {"measurement": "binding of APP mRNA IRE to IRP1", "setting": "APP or aSYN mRNA to IRP1; under high iron conditions", "result": "augments"}, {"measurement": "binding of APP or aSYN mRNA to IRP1", "setting": "APP or aSYN mRNA to IRP1; under iron or metal-homeostasis", "result": "does not increase"}, {"measurement": "amount of insoluble tau", "setting": "[5]", "result": "significant reduction"}, {"measurement": "neurotoxic aggregating proteins", "setting": "[6]", "result": "not inhibit"}, {"measurement": "Tau expression", "setting": "[7]", "result": "reduces"}, {"measurement": "levels of APP, Tau, and αSYN in the cerebrospinal fluid (CSF)", "setting": "[8]; 4×60 mg/day", "result": "normalized"}, {"measurement": "CSF Aβ42", "setting": "[8]", "result": "trend to lower"}, {"measurement": "CSF levels of p-tau", "setting": "[8]", "result": "significantly lowered"}, {"measurement": "CSF levels of sAPPα", "setting": "[8]", "result": "significantly lowered"}, {"measurement": "CSF levels of sAPPβ", "setting": "[8]", "result": "significantly lowered"}, {"measurement": "CSF levels of specific inflammatory markers", "setting": "[8]", "result": "significantly lowered"}, {"measurement": "CSF levels of t-tau", "setting": "[8]", "result": "significantly lowered"}, {"measurement": "half-life in CSF", "setting": "[8]", "result": "> 12", "unit": "h"}, {"measurement": "neuroblastoma survival in the presence of gingipains", "setting": "[9]", "result": "no impact"}, {"measurement": "reduction of alpha-synuclein levels in the gut", "setting": "alpha-synuclein; 10 mg/kg for 21 weeks, p<0.05, FIG. 7", "result": 50.6, "unit": "%"}, {"measurement": "significant reduction of alpha-synuclein levels in the gut", "setting": "alpha-synuclein; 10 mg/kg for 21 days", "result": "not at 21 days"}, {"measurement": "memory and learning", "setting": "[10]; APP/PS1 tg mice", "result": "Restored"}, {"measurement": "impaired synaptic transmission", "setting": "[10]; hippocampus of APP/PS1 tg mice", "result": "Normalized"}, {"measurement": "tolerability", "setting": "[11]; doses up to 4×60 mg daily×10 days", "result": "well tolerated"}, {"measurement": "terminal half-life", "setting": "[11]; plasma, all doses", "result": "4.3 to 4.7", "unit": "h"}]}]}
